According to US4399274A, “Isolation of non-ionic lipophilic materials on macroreticular polymeric absorbents” (priority 1981, dated 1983):

Test: Partition of avermectins between aqueous acetone and Duolite ES-863 resin (HPLC of supernatant before and after equilibration)
[1] = 21.4% acetone (vol), 4 ml supernatant, 1 g ES-863 resin, equilibrated for an hour
[2] = 23.1% acetone (vol), 4 ml supernatant, 1 g ES-863 resin, equilibrated for an hour
[3] = 25.0% acetone (vol), 4 ml supernatant, 1 g ES-863 resin, equilibrated for an hour
[4] = 27.3% acetone (vol), 4 ml supernatant, 1 g ES-863 resin, equilibrated for an hour
[5] = 37.5% acetone (vol), 4 ml supernatant, 1 g ES-863 resin, equilibrated for an hour
[6] = 42.9% acetone (vol), 4 ml supernatant, 1 g ES-863 resin, equilibrated for an hour
[7] = 50.0% acetone (vol), 4 ml supernatant, 1 g ES-863 resin, equilibrated for an hour
[8] = 60.0% acetone (vol), 4 ml supernatant, 1 g ES-863 resin, equilibrated for an hour
[9] = 68.0% acetone, ES-863 resin, similar procedures
[10] = 73.3% acetone, ES-863 resin, similar procedures
[11] = 77.1% acetone, ES-863 resin, similar procedures
[12] = 80.0% acetone, ES-863 resin, similar procedures
[13] = 82.2% acetone, ES-863 resin, similar procedures

Experimental: After standing overnight they were centrifuged and 4 ml of each supernatant was transferred to tubes containing 1 g each of purified ES-863 resin. An aliquot was also taken for HPLC assay.
The samples containing the resin were equilibrated for an hour, then centrifuged. The supernatants were assayed by HPLC. A comparison of the assays before and after equilibration represent the partition between the solvent and the adsorbent.

SMILES	% Remaining in Solution [1] [%]	% Remaining in Solution [2] [%]	% Remaining in Solution [3] [%]	% Remaining in Solution [4] [%]	% Remaining in Solution [5] [%]	% Remaining in Solution [6] [%]	% Remaining in Solution [7] [%]	% Remaining in Solution [8] [%]	% Remaining in Solution [9] [%]	% Remaining in Solution [10] [%]	% Remaining in Solution [11] [%]	% Remaining in Solution [12] [%]	% Remaining in Solution [13] [%]
CCC(C)C1OC2(C=CC1C)CC1CC(CC=C(C)C(OC3CC(OC)C(OC4CC(OC)C(O)C(C)O4)C(C)O3)C(C)C=CC=C3COC4C(OC)C(C)=CC(C(=O)O1)C34O)O2 (stereo not drawn) [A1a]	4.40	6.75	7.09	8.42	3.60	4.39	3.03	2.10	5.68	19.7	36.2	51.5	136
CCC(C)C1OC2(CC3CC(CC=C(C)C(OC4CC(OC)C(OC5CC(OC)C(O)C(C)O5)C(C)O4)C(C)C=CC=C4COC5C(O)C(C)=CC(C(=O)O3)C45O)O2)CC(O)C1C (stereo not drawn) [B2a]	5.10	6.09	7.29	5.37	3.21	2.65	1.36	4.95	27.8	60.4	82.1	99.8	165
COC1CC(OC2C(C)OC(OC3C(C)=CCC4CC(CC5(C=CC(C)C(C(C)C)O5)O4)OC(=O)C4C=C(C)C(OC)C5OCC(=CC=CC3C)C45O)CC2OC)OC(C)C1O (stereo not drawn) [A1b]	4.56	4.85	5.63	6.42	3.18	3.13	2.42	1.69	10.6	68.1	111	145	79.0
COC1CC(OC2C(C)OC(OC3C(C)=CCC4CC(CC5(C=CC(C)C(C(C)C)O5)O4)OC(=O)C4C=C(C)C(O)C5OCC(=CC=CC3C)C45O)CC2OC)OC(C)C1O (stereo not drawn) [B1b]	3.73	5.03	6.32	4.55	2.59	2.13	0.90	1.53	20.4	5.15	73.8	94.2	123
COC1CC(OC2C(C)OC(OC3C(C)=CCC4CC(CC5(CC(O)C(C)C(C(C)C)O5)O4)OC(=O)C4C=C(C)C(OC)C5OCC(=CC=CC3C)C45O)CC2OC)OC(C)C1O (stereo not drawn) [A2b]	2.75	3.89	5.38	3.73	2.70	1.71	0.57	0.3	26.8	64.8	94.4	117	128
COC1CC(OC2C(C)OC(OC3C(C)=CCC4CC(CC5(CC(O)C(C)C(C(C)C)O5)O4)OC(=O)C4C=C(C)C(O)C5OCC(=CC=CC3C)C45O)CC2OC)OC(C)C1O (stereo not drawn) [B2b]	< 2	4.80	5.08	2.34	< 3	3.89	4.35	33.3	–	–	–	–	135
CCC(C)C1OC2(CC3CC(CC=C(C)C(OC4CC(OC)C(OC5CC(OC)C(O)C(C)O5)C(C)O4)C(C)C=CC=C4COC5C(OC)C(C)=CC(C(=O)O3)C45O)O2)CC(O)C1C (stereo not drawn) [A2a]	5.36	6.54	7.86	6.99	4.19	3.76	2.12	2.72	15.2	42.1	65.7	86.7	110
